Test results from patent US20240043470A1, “MACROCYCLIC COMPOUNDS AS PROTEASOME INHIBITORS” (CORNELL UNIVERSITY, priority 2017, published 2024).
Where two headings read alike, the source gives them in different places.

Experiments:
[1] = amide bond; 16-membered ring; HATU/DIEA; DMF; […]; 0.0 °C
[2] = rcm bond
β5i of hu i-20S = β5i of hu i-20S (Homo sapiens (Human), UniProt P20618+P28062); assay: IC50 determination against β5i of human immunoproteasome (Ac-ANW-AMC hydrolysis); format: biochemical; conditions: β5i, 0.4 nM i-20S, 15 μM Ac-ANW-AMC;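 also: enzyme activity taken as the initial reaction velocity per well, with SDS added to activate the proteasome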
β5c of hu c-20S = β5c of hu c-20S (Homo sapiens (Human), UniProt P20618+P28074); assay: IC50 determination against β5c of human constitutive proteasome (suc-LLVY-AMC hydrolysis); format: biochemical; conditions: 0.2 nM c-20S, 25 μM suc-LLVY-AMC;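 also: IC50 obtained by fitting initial reaction velocities to a dose-dependent inhibition model, with SDS present as proteasome activator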

Row | IC50 (β5i of hu i-20S) | IC50 (β5c of hu c-20S) | Compound | further results
1 | – | – | (5S,8S,11S)-11-Acetamido-7,10-dioxo-8-propyl-N-(2,2,2-trifluoroethyl)-2-oxa-6,9-diaza-1,3(1,3)-dibenzenacyclododecaphane-5-carboxamide | ring closure, isolated yield [1]: 18.7%
2 | – | – | O=C(NC1CCCC1)[C@@H]1CC=CCOc2cccc(c2)C[C@H](N2CCCC2=O)C(=O)N[C@@H](CCN2CCC(F)(F)CC2)C(=O)N1 | ring closure, yield of all isomers ([2]; from C=CCOc1cccc(C[C@@H](C(=O)N[C@@H](CCN2CCC(F)(F)CC2)C(=O)N[C@@H](CC=C)C(=O)NC2CCCC2)N2CCCC2=O)c1, Grubbs catalyst 2nd Generation, 1,2-dichloroethane, 5.07 mM, 60.0 °C, 12.0 h): 61.6%
3 | > 100 µM | 38.6 µM | O=C1CCc2cccc(c2)OCCCC[C@@H](C(=O)NC2CCCC2)NC(=O)[C@H](CCc2ccc(F)cc2)N1 [Compound 3-39, (7S,10S)—N-Cyclopentyl-10-(4-fluorophenethyl)-9,12-dioxo-2-oxa-8,11-diaza-1(1,3)-benzenacyclotetradecaphane-7-carboxamide] | –
4 | 7.22 µM | > 100 µM | Cn1cc(CNC(=O)[C@@H]2Cc3cccc(c3)Oc3cccc(c3)C[C@H](NS(C)(=O)=O)C(=O)N[C@@H](CCc3ccccc3)C(=O)N2)cn1 [Compound 1-04, (5S,8S,11S)—N-((1-Methyl-1H-pyrazol-4-yl)methyl)-11-(methylsulfonamido)-7,10-dioxo-8-phenethyl-2-oxa-6,9-diaza-1,3(1,3)-dibenzenacyclododecaphane-5-carboxamide] | –
5 | > 100 µM | 21.5 µM | C[C@@H]1Cc2cccc(c2)OCCCC[C@@H](C(=O)NC2CCCC2)NC(=O)[C@H](CCN2CCOCC2)NC1=O (single isomer, unassigned) [Compound 3-38] | –
6 | – | – | CC(C)(C)OC(=O)[C@@H]1CCCCCC=CCCCC(=O)N[C@@H](CC(=O)OCc2ccccc2)C(=O)N1 | ring closure, yield of all isomers ([2]; from C=CCCCCC[C@H](NC(=O)[C@H](CC(=O)OCc1ccccc1)NC(=O)CCCC=C)C(=O)OC(C)(C)C, Grubbs 2nd Generation catalyst, toluene, 1.27 mM, 40.0 °C, 16.0 h): 92.6%
7 | – | – | O=C1CCc2cccc(c2)OCC=CC[C@@H](C(=O)NC2CCCC2)NC(=O)[C@H](CC(=O)N2CCCC2C2CC2)N1 (some centres unmarked) | ring closure, yield of all isomers ([2]; from C=CCOc1cccc(CCC(=O)N[C@@H](CC(=O)N2CCCC2C2CC2)C(=O)N[C@@H](CC=C)C(=O)NC2CCCC2)c1, Grubbs 2nd generation, 1,2-dichloroethane, 4.09 mM, 50.0 °C, 12.0 h): 46.7%
8 | > 100 µM | 56.7 µM | C[C@H]1Cc2cccc(c2)OCCCC[C@@H](C(=O)NC2CCCC2)NC(=O)[C@H](CCN2CCOCC2)NC1=O (single isomer, unassigned) [Compound 3-37] | –
9 | 2.72 µM | > 100 µM | CN1C(=O)[C@@H](N2CCCC2=O)Cc2cccc(c2)Oc2cccc(c2)C[C@@H](C(=O)NCC(F)(F)F)NC(=O)[C@@H]1CCc1ccccc1 [Compound 1-64] | –
10 | > 10 µM | 23.1 µM | COC(=O)C1COCCOc2cccc(c2)CCC(=O)NC(CCc2ccccc2)C(=O)N1 [Compound 3-05, Methyl-(7S,10S)-9,12-dioxo-10-phenethyl-2,5-dioxa-8,11-diaza-1(1,3)-benzenacyclotetradecaphane-7-carboxylate] | –
11 | 82 µM | 31.9 µM | O=C(NCc1ncco1)[C@@H]1CCCCOc2cccc(c2)C[C@H](N2CCCC2=O)C(=O)N[C@@H](CCc2ccccc2)C(=O)N1 [Compound 3-16] | –
12 | > 100 µM | 68.1 µM | COC1(CNC(=O)[C@@H]2Cc3cccc(c3)Oc3cccc(c3)CCC(=O)N[C@@H](CCN3CCOCC3)C(=O)N2)CC1 [Compound 1-90] | –
13 | 3.5 µM | 3.4 µM | O=C1CCc2cccc(c2)OCCCC[C@@H](C(=O)NCc2ccccc2F)NC(=O)[C@H](CCN2CCOCC2)N1 [Compound 3-26] | –
14 | > 100 µM | 5.15 µM | CN(Cc1ccccc1)C(=O)[C@@H]1CCCCOc2cccc(c2)C[C@H](N2CCCC2=O)C(=O)N[C@@H](CCc2ccc(F)cc2)C(=O)N1 [Compound 3-44] | –
15 | 5.88 µM | 0.433 µM | CC(=O)N[C@H]1Cc2cccc(c2)OCCCC[C@@H](C(=O)NCC(F)(F)F)NC(=O)[C@H](CCc2ccccc2)NC1=O [Compound 3-02, (3S,6S,9S)-3-Acetamido-4,7-dioxo-6-(2-phenylethyl)-N-(2,2,2-trifluoroethyl)-14-oxa-5,8-diazabicyclo[13.3.1]nonadeca-1(19),15,17-triene-9-carboxamide] | –
16 | 33.4 µM | > 100 µM | O=C1CCCCCCCCCC[C@@H](C(=O)NCc2cccc3ccccc23)NC(=O)[C@H](CC(=O)N2CCC[C@@H]2c2ccccc2)N1 [Compound 4-08] | –
17 | – | – | CC(=O)N[C@H]1Cc2cccc(c2)OCC=CC[C@@H](C(=O)NCC(F)(F)F)NC(=O)[C@H](CCc2ccccc2)NC1=O | ring closure, yield of all isomers ([2]; from C=CCOc1cccc(C[C@H](NC(C)=O)C(=O)N[C@@H](CCc2ccccc2)C(=O)N[C@@H](CC=C)C(=O)NCC(F)(F)F)c1, Grubbs 2nd generation catalyst, DCM, 5.33 mM, 40.0 °C, 4.0 h): 47%
18 | 33.9 µM | 30.7 µM | CN1CCN(C(=O)[C@@H]2Cc3cccc(c3)Oc3cccc(c3)C[C@H](NC(=O)c3ccccn3)C(=O)N[C@@H](CCc3ccccc3)C(=O)N2)CC1 [Compound 1-52] | –
19 | > 100 µM | 3.6 µM | CC(C)(C)NC(=O)[C@@H]1Cc2cccc(c2)Oc2cccc(c2)C[C@H](NS(C)(=O)=O)C(=O)N[C@@H](CCc2ccccc2)C(=O)N1 [Compound 1-37] | –
20 | – | – | O=C1CCc2cccc(c2)OCC=CC[C@@H](C(=O)NC2CCCC2)NC(=O)[C@H](CCc2ccc(F)cc2)N1 | ring closure, yield of all isomers ([2]; from C=CCOc1cccc(CCC(=O)N[C@@H](CCc2ccc(F)cc2)C(=O)N[C@@H](CC=C)C(=O)NC2CCCC2)c1, Grubbs catalyst 2nd generation, 1,2-dichloroethane, […], 60.0 °C, 12.0 h): 65%
21 | – | – | COC(=O)[C@@H]1CCCCCC=CCCC(Cc2ccccc2)C(=O)N[C@@H](CC(=O)OCc2ccccc2)C(=O)N1 (some centres unmarked) | ring closure, yield of all isomers ([2]; from C=CCCCCC[C@H](NC(=O)[C@H](CC(=O)OCc1ccccc1)NC(=O)C(CCC=C)Cc1ccccc1)C(=O)OC, Grubbs 2nd generation, 1,2-dichloroethane, 10.75 mM, 50.0 °C, 24.0 h): 53%
22 | – | – | CC(=O)N[C@H]1CC=CCOc2cccc(c2)C[C@@H](C(=O)NCC(F)(F)F)NC(=O)[C@H](CCc2ccccc2)NC1=O | ring closure, yield of all isomers ([2]; from C=CCOc1cccc(C[C@H](NC(=O)[C@H](CCc2ccccc2)NC(=O)[C@H](CC=C)NC(C)=O)C(=O)NCC(F)(F)F)c1, Grubbs 2nd generation catalyst, DCM, 24.9 mM, 40.0 °C, 4.0 h): 88.8%

Row | Compound | IC50 (β5i of hu i-20S) | IC50 (β5c of hu c-20S) | further results
23 | O=C1CCCCCCCCOC[C@@H](C(=O)NCc2ccccc2F)NC(=O)[C@H](CC(=O)N2CCC[C@@H]2c2ccccc2)N1 [Compound 4-16] | 51.3 µM | 4.12 µM | –
24 | O=C1CCCCCCCCOC[C@@H](C(=O)NCc2cccc3ccccc23)NC(=O)[C@H](CC(=O)N2CCCC2)N1 [Compound 4-15, (3S,6S)—N-(Naphthalen-1-ylmethyl)-5,8-dioxo-6-(2-oxo-2-(pyrrolidin-1-yl)ethyl)-1-oxa-4,7-diazacyclohexadecane-3-carboxamide] | 4.71 µM | 3.67 µM | –
25 | O=C1CCc2cccc(c2)OCCCC[C@@H](C(=O)NCc2ccccc2F)NC(=O)[C@H](CC(=O)N2CCCC2C2CC2)N1 (single isomer, unassigned) [Compound 3-46-A] | 0.068 µM | 0.0723 µM | –
26 | O=C(CC(F)(F)F)N[C@H]1Cc2cccc(c2)Oc2cccc(c2)C[C@@H](C(=O)NCC(F)(F)F)NC(=O)[C@H](CCc2ccccc2)NC1=O [Compound 1-55, (5S,8S,11S)-7,10-Dioxo-8-phenethyl-N-(2,2,2-trifluoroethyl)-11-(3,3,3-trifluoropropanamido)-2-oxa-6,9-diaza-1,3(1,3)-dibenzenacyclododecaphane-5-carboxamide] | > 100 µM | > 100 µM | –
27 | O=C1CCc2cccc(c2)Oc2ccc(cc2)C[C@@H](C(=O)NCc2ccccc2F)NC(=O)[C@H](CC(=O)N2CCC[C@@H]2c2ccccc2)N1 [Compound 2-02-B, (5S,8S)—N-(2-Fluorobenzyl)-7,10-dioxo-8-(2-oxo-2-((R)-2-phenylpyrrolidin-1-yl)ethyl)-2-oxa-6,9-diaza-1(1,3),3(1,4)-dibenzenacyclododecaphane-5-carboxamide] | 6.75 µM | > 100 µM | –
28 | O=C1CCc2cccc(c2)OCCCC[C@@H](C(=O)NCc2ccccc2F)NC(=O)[C@H](CC(=O)N2CCCC2C2CC2)N1 (single isomer, unassigned) [Compound 3-46-B] | 0.312 µM | 1.35 µM | –
29 | CN(C)[C@H]1Cc2cccc(c2)Oc2cccc(c2)C[C@@H](C(=O)NCC(F)(F)F)NC(=O)[C@H](CCc2ccccc2)NC1=O [Compound 1-57, (5S,8S,11S)-11-(Dimethylamino)-7,10-dioxo-8-phenethyl-N-(2,2,2-trifluoroethyl)-2-oxa-6,9-diaza-1,3(1,3)-dibenzenacyclododecaphane-5-carboxamide] | 18.7 µM | 1.1 µM | –
